Test results as given in patent US6709851B1, “Stabilization of helicobacter urease” (OraVax-Merieux Co., priority 1997, dated 2004).
Entries after “also recorded” stand apart in the source; their conditions may differ. Like-named read-outs stand apart in the source and are kept apart here.

Experiments:
[1] = target: T1, recombinant H. pylori apourease (Helicobacter pylori, UniProt P69996); type: biochemical; conditions: for activation of modified urease after removal of excess modifying agent: excess agent removed by diafiltration; for activation with Ni++ and bicarbonate of urease modified by the compound: urease modified before activation
[2] = target: T1, recombinant H. pylori apourease; type: biochemical; conditions: for effect of imidazole on activation by Ni++ and bicarbonate: imidazole 2.5-25 mM, 200 mM bicarbonate, 200 μM Ni++
[3] = target: in vitro activated urease (Helicobacter pylori, UniProt P69996); type: biochemical
[4] = Molecular stability and aggregation of urease by analytical size exclusion HPLC; conditions: for effect of blocking free sulfhydryl groups on molecular association of urease: treated urease in solution or dialyzed in PBS; for effect of additive on molecular association of urease: dialysis against PBS and storage at 4° C.
[5] = compound added along with activation buffer

T1 sequence (P69996 whole entry, looked up): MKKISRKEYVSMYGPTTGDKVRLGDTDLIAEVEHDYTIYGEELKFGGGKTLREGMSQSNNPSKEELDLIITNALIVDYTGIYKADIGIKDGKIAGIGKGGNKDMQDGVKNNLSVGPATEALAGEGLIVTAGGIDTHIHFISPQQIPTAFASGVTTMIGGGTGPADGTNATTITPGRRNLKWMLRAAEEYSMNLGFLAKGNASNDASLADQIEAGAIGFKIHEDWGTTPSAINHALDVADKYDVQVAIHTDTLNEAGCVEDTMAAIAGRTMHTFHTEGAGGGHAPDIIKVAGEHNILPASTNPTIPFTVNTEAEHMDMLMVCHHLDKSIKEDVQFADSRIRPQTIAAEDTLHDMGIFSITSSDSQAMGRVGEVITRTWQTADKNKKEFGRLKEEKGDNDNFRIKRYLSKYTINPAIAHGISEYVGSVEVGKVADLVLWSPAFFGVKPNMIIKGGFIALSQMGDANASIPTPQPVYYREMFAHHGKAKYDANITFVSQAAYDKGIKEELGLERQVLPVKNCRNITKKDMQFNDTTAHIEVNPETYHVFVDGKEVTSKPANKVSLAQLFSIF
in vitro activated urease, sequence (P69996 whole entry, looked up): as above

Compound: [Co+2] [Co^++]
- activation of recombinant urease by metal ion with bicarbonate [1]: do not cause urease activation
- effect of other metal ion on activation of recombinant urease by Ni++ [1]: inhibit activation

Compound: [Cu+2] [Cu^++]
- effect of other metal ion on activation of recombinant urease by Ni++ [1]: inhibited activation; also recorded: antagonistic effects
- effect of other metal ion on Ni++ activation by native PAGE and silver staining [2]: inhibitory effect

Compound: O=[N+]([O-])c1ccc(F)c([N+](=O)[O-])c1 [DNFB, dinitrofluorobenzene]
- activation with compound included in the activation mixture [1]: activation is blocked
- in vitro activation after DNFB treatment for 5, 15, 30, and 60 minutes [1]: blocks in vitro activation
- pH dependence of DNFB blocking of in vitro activation [1]: more effective at alkaline pH (pH>7.5) than at neutral or acidic pH; also recorded: pH-dependent
- in vitro activation of apourease modified with DNFB ([1]; pH 8): blocked in vitro activation; also recorded: not activated
- effect of DNFB on pre-activated urease activity [3]: inactivates pre-activated urease in a pH-dependent manner
- effect of DNFB treatment on molecular stability ([4]; dialyzed against phosphate buffer overnight): stabilizes the hexameric form of urease

Compound: O=C(O)c1cc(SSc2ccc([N+](=O)[O-])c(C(=O)O)c2)ccc1[N+](=O)[O-] [DTNB, 5-5′-dithio-bis-2-nitrobenzoic acid]
- activation with compound included in the activation mixture [1, 5]: blocking of activation
- activation of modified urease after removal of excess modifying agent [1]: not activated
- activation with Ni++ and bicarbonate of urease modified by the compound [1]: not activated
- effect of blocking free sulfhydryl groups on molecular association of urease [4]: stabilizing effect on urease in solution; also recorded: reduce the molecular associations; also recorded: stabilized the hexamer form of urease and prevented molecular association

Compound: O=C(O)CN(CCN(CC(=O)O)CC(=O)O)CC(=O)O [EDTA]
- effect of additive on molecular association of urease [4]: did not have any significant effect

Compound: [Fe+2] [Fe^++]
- effect of other metal ion on activation of recombinant urease by Ni++ [1]: inhibited activation; also recorded: antagonistic effects
- effect of other metal ion on Ni++ activation by native PAGE and silver staining [2]: inhibitory effect

Compound: [Mg+2] [Mg^++]
- effect of other metal ion on activation of recombinant urease by Ni++ [1]: no detectable effect

Compound: [Mn+2] [Mn^++]
- activation of recombinant urease by metal ion with bicarbonate [1]: resulted in activation of urease
- effect of other metal ion on activation of recombinant urease by Ni++ [1]: enhanced the activation; also recorded: synergistic effect

Compound: CCN1C(=O)C=CC1=O [NEM, N-ethyl maleimide]
- activation by bicarbonate and nickel of NEM-modified apourease ([1]; 9 mM NEM, room temperature, 60 minutes, 20 mM Hepes pH 7.5): not activated

Compound: [Ni+2] [Ni^++]
- activation of recombinant urease by metal ion with bicarbonate [1]: resulted in activation of urease

Compound: OC[C@H]1O[C@@](CO)(O[C@H]2O[C@H](CO)[C@@H](O)[C@H](O)[C@H]2O)[C@@H](O)[C@@H]1O [Sucrose]
- effect of additive on molecular association of urease [4]: significantly reduced the extent of aggregation

Compound: c1c[nH]cn1 [imidazole]
- effect of imidazole on activation by Ni++ and bicarbonate [2]: inhibits urease activation
- effect of imidazole on activation by Ni++ and bicarbonate ([2]; listed as Imidazole): inhibit the activation of recombinant urease in a concentration-dependent manner

Compound: NC(=O)CI [iodoacetamide]
- activation with compound included in the activation mixture [1, 5]: blocking of activation
- activation of modified urease after removal of excess modifying agent [1]: not activated
- activation with Ni++ and bicarbonate of urease modified by the compound [1]: not activated; also recorded: inhibits activation
- effect of blocking free sulfhydryl groups on molecular association of urease [4]: stabilizing effect on urease in solution; also recorded: reduce the molecular associations; also recorded: stabilized the hexameric form of urease and prevented molecular association

Compound: OCCS [β-mercaptoethanol]
- effect of additive on molecular association of urease [4]: stabilized urease in the hexameric form; also recorded: prevented the molecular associations
